Read-outs that look alike come from different tables or passages of the source. *1 amine or outer side, *2 acyl side, *3 side chain or, on linkers, in order; H or OH if unused. Where a SMILES comes first, the peptide text is derived from it. Bridges are numbered along the chain shown (N, C = ends). [ ]: non-standard residue; d: D form. TBMB = c1c(C[*:1])cc(C[*:3])cc1C[*:2]; hArg = N=C(N)NCCCC[C@H](N)C(=O)O; Aze = O=C(O)[C@@H]1CCN1; Sar = CNCC(=O)O
Tests used:
[1] = molecular target: T1, rat plasma kallikrein (Rattus norvegicus, UniProt P14272); assay: Functional enzyme assay, inhibition of rat plasma kallikrein (Z-PheArg-AMC substrate); type: biochemical; details: Table 1, synthetic peptides; read-out: Rat (Ki)
T1 construct: polyhistidine tag followed by proTEV cleavage site (pro-peptide) (N, cleaved yes); made in house; host or cells: HEK-293 (suspension-adapted), pEXPR-IBA42 vector
T1 sequence (P14272 391-638 limits assumed): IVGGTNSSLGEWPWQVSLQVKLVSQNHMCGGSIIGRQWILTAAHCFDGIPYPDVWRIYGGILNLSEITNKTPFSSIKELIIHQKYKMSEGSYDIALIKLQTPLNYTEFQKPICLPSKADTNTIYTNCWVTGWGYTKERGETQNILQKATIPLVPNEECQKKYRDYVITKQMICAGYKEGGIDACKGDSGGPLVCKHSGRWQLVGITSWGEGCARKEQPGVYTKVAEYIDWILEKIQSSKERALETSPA
Experimental: Functional enzyme assays were conducted in 10 mM Tris HCl, 150 mM NaCl, 10 mM MgCl2, 1 mM CaCl2 and 1 mg/mL BSA (all Sigma UK) pH 7.4 at 25° C. in solid black 96 or 384 well plates. […] Release of AMC was measured using a Pherastar FS (BMG Labtech), excitation 360 nm, emission 460 nm. The rate of the linear phase of the reaction, typically 5 to 45 minutes, was calculated in MARS data analysis software (BMG labtech). The rate was then used to calculate the IC50 and Ki in Prism (GraphPad). A four parameter inhibition non-linear regression equation was used to calculate the IC50. […]
Peptides were dissolved as the TFA-salts in their powder form, and stock solutions were usually prepared in water. All solutions were centrifuged and filtered ([…] syringe filters) prior to absorption measurement at 280 nm. Extinction coefficients were calculated based on the Trp/Tyr content of the peptide, and that of TMB (the TMB core, when contained in a peptide, has an extinction coefficient of ˜300 M^−1 cm^−1).

[2] = Aqueous solubility (qualitative); type: physicochemical; details: in words
[3] = Plasma stability profiling Method #1 (35% plasma, MALDI-TOF window of detection); type: in vitro ADME; details: Method #1, 35% rat or human plasma, 37° C., qualitative
Experimental: A rapid plasma stability profiling assay was developed that employed mass spectrometric detection (MALDI-TOF, Voyager DE, Applied Biosystems) of the parent mass, until the time when the parent peptide mass was no longer observable. Specifically, 200 μM of peptide was incubated in the presence of 35% rat or human plasma (Sera labs, using citrate as anticoagulant) at 37° C., which was supplemented with 1×PBS (derived from a 10×PBS Stock, Sigma). At various time points (i.e. t=0, 3, 24 hrs, henceafter daily up to 10 days), 2 μL of sample was added to 18 μL of 30 mM ammonium bicarbonate in a 1:1 mixture of acetonitrile:H2O. Samples were frozen at −80° C. until the time of analysis. For mass spectrometric analysis that determines the approximate detection window of the peptide, the acetonitrile:H2O-diluted sample of a given time point was spotted directly (0.7 μL) onto the MALDI plate. Matrix (alpha-cyanocinnamic acid, Sigma, prepared as a saturated solution in 1:1 acetonitrile:water containing 0.1% trifluoroacetic acid) was layered over the sample (1 μL). At a similar laser intensity setting on the MALDI TOF, the time could then be determined until parent peptide was no longer detectable. It should be noted that this is a qualitative assay serves to detect relative changes in plasma stability.

[4] = molecular target: rabbit kallikrein (Oryctolagus cuniculus, UniProt G1T127); assay: Functional enzyme assay, inhibition of rabbit kallikrein; type: biochemical; details: read-out: Rabbit (Ki)
Sequence of rabbit kallikrein (G1T127 20-629): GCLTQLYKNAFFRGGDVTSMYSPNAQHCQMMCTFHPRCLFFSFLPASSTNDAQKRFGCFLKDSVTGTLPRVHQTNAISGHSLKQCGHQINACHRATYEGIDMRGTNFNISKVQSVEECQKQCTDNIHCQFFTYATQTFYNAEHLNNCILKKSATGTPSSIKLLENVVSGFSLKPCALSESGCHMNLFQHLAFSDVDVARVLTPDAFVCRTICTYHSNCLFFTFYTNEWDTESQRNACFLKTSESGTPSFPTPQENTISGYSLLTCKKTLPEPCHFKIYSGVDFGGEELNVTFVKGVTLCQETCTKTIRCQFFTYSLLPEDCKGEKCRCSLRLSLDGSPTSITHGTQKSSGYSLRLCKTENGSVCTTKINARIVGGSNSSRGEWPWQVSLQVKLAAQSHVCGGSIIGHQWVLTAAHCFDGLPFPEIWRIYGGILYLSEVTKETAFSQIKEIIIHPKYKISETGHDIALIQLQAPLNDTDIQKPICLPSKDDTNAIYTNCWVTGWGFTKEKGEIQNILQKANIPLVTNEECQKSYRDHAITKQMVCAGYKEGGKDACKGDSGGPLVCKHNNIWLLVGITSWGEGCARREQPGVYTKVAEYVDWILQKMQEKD
Outline: (§1)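 Buffer 10 mM Tris HCl, 150 mM NaCl, 10 mM MgCl2, 1 mM CaCl2, 1 mg/mL BSA, pH 7.4, 25° C. AMC release read at ex 360/em 460 nm; linear-phase rate (typically 5–45 min) fitted by four-parameter non-linear regression for IC50, with Ki also derived.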

[5] = molecular target: T2, human plasma kallikrein (Homo sapiens, UniProt P03952); assay: Functional enzyme assay, inhibition of human plasma kallikrein (Z-PheArg-AMC substrate); type: biochemical
T2 construct: purchased Stratech, UK
T2 sequence (P03952 391-638 limits assumed): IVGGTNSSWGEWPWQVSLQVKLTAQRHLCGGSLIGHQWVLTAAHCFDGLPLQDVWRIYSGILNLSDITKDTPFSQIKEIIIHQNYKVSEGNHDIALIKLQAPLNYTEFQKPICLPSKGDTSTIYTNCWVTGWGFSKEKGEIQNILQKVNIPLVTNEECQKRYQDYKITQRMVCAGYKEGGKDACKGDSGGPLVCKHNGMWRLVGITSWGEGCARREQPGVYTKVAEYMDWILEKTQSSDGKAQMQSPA
T2 sequence (P03952 20-390 partner limits assumed): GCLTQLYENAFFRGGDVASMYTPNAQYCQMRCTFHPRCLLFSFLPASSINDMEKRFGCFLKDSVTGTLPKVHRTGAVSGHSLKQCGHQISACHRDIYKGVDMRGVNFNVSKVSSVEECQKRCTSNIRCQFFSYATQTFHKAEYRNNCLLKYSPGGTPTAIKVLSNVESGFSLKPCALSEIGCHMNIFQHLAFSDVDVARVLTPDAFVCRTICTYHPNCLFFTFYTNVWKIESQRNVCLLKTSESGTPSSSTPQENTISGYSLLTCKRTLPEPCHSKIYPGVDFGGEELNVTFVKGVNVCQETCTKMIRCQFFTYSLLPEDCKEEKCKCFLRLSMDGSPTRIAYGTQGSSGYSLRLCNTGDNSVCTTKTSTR
Outline: as §1

[6] = Intravenous pharmacokinetics in rat; type: in vivo; details: iv 5 mg/kg
Experimental: Peptides used for the pharmacokinetic studies in Example 4 were lyophilised from 10 mM HCl in water 3 times to afford the hydrochloride salts of the compounds. Solutions were dosed by intravenous bolus at 1 mg/mL in 50 mM Hepes pH 7.0, 5% glycerol, 1.9% DMSO for two compounds (Ac-(06-550) Aze3 HArg5 Sar3-(D-Arg2)) and (06-259-02)-Sar3-(D-Arg2)) at 5 mg/kg in Spraguely Dawely rats. Serial blood samples (˜0.2 mL) were taken into EDTA tubes at the indicated time points, and plasma was separated by centrifugation, and frozen at −20 C for analysis. Employing standard bioanalytical techniques, plasma samples were then analysed and quantified for parent remaining compound using a Waters, Xevo TQS LC-MS. PK parameters were determined using the software package PK Solutions 2.0 from Summit Research Services.
Peptides Ac-(06-550)-Sar3-(D-Arg)2Aze3 HArg5 (which contains the stabilising and affinity enhancing modifications Aze3 and HArg5, and a solubilising C-terminal extension Sar3-(D-Arg)2) (SEQ ID NO: 98) and Ac-(06-259-02)-Sar3-(D-Arg)2 were selected for pharmacokinetic assessment in rat. Peptides were injected intravenously in buffered solution at 1 mg/mL at 5 mg/kg Sprague Dawley rats, and blood was sampled and analysed for peptide concentrations at a number of time points post injection.

[7] = Plasma stability profiling Method #2 (95% plasma, MALDI-TOF), human plasma; type: in vitro ADME; details: qualitative, sampled up to 46 hrs
Experimental: (§2) To obtain stability data more rapidly, peptides were also assessed in 95% plasma. Here, PBS was omitted, and a 1-5 mM peptide stock (in DMSO) was directly diluted into plasma (i.e. 2.5 μL stock into 47.5 μL plasma), giving a final concentration of 50 μM. 5 μL samples were taken at appropriate time points and frozen at −80° C. For analysis, the samples were defrosted, mixed with 25 μL of 3:3:1 acetonitrile:methanol:water, and centrifuged at 13 k for 5 min. 5 μL of the peptide-containing supernatant was aspirated and mixed with 30 mM ammonium bicarbonate in a 1:1 mixture of acetonitrile:H2O. 1 μL of this was then spotted on the MALDI plate and analysed as described above. As above, it should be noted that this is a qualitative assay serves to detect relative changes in plasma stability.

[8] = Plasma stability profiling Method #2 (95% plasma, MALDI-TOF), rat plasma; type: in vitro ADME; details: qualitative, sampled up to 46 hrs
Experimental: as §2

[9] = molecular target: T3, biotinylated human plasma kallikrein (Homo sapiens, UniProt P03952); assay: Homogeneous plate-based screening assay of TBMB-cyclised phage clones (signal:background); type: binding; details: Table 4, 06-259 affinity-matured library
T3 construct: The human kallikrein is non-recombinant and therefore the heavy chain is present; purchased Innovative Research, Novi, Mich., USA IHPKA; host or cells: from human plasma
T3 sequence (P03952 391-638 limits assumed): as the sequence (P03952 391-638 limits assumed) above
T3 sequence (P03952 20-390 partner limits assumed): as the sequence (P03952 20-390 partner limits assumed) above
Experimental: Assay of binding of individual clones: Library transformant colonies were picked at random and grown as individual cultures in 2TY broth containing selective antibiotic. The picked colonies were DNA-sequenced using a QIAgen PyroMark Q96 DNA sequencer to reveal the amino-acid substitution present in each clone. Where isolated, a clone of each unique substitution was assayed for human plasma kallikrein binding as follows. The phage-containing supernatant was harvested from the culture and phage were cyclised with tris bromomethyl benzene (TBMB) based on the methods of Heinis et al (Nature Chemical Biology vol. 5 pp 502-507 (2009)). The purified phage from this process were assayed for binding to biotinylated human plasma kallikrein using a homogeneous plate-based binding assay; assay read-out measured on a BMG Labtech Pherastar FS plate reader. The quantitative binding data from triplicate assay samples was averaged (mean) and expressed as signal:background (where background was a sample assayed with no target material). The signal:background was expressed as a % of the parallel parent sample. Error bars denote standard deviation of the mean. Assays shown are representative of at least 2 independent experiments. The assay data was correlated with the peptide sequences. Substitutions marked in grey were not tested (a clone was not isolated from the random library sampling). A sample of a non-binding (arbitrary) bicycle was assayed in parallel to illustrate the assay baseline.
Assay of binding of individual clones: Library transformant colonies, or selection output colonies, were picked and grown as individual cultures in 2TY broth containing selective antibiotic. The picked colonies were DNA-sequenced using a QIAgen PyroMark Q96 DNA sequencer to reveal the amino-acid substitution present in each clone, and were assayed for human plasma kallikrein binding as follows. The phage-containing supernatant was harvested from the culture and phage were cyclised with tris-bromomethylbenzene (TBMB) based on the methods of Heinis et al (Nature Chemical Biology vol. 5 pp 502-507 (2009)). The purified phage from this process were assayed for binding to biotinylated human plasma kallikrein using a homogeneous plate-based binding assay; assay read-out measured on a BMG Labtech Pherastar FS plate reader. The quantitative binding data from duplicate assay samples was averaged (mean) and expressed as signal:background. Assay data shown is representative of at least 2 independent experiments. The assay data was correlated with the peptide sequences.

[10] = Pharmacokinetics following intravitreal injection in rabbit; type: in vivo; details: vitreous humour; New Zealand White rabbit, intravitreal 100 μg/eye; read-out: elimination half-life from the vitreous humour
Experimental: In this analysis, peptide Ac-(06-550)-Sar3-(D-Arg)2 Aze3 HArg5 (referred to in this study as Bicycle 1 and which contains the stabilising and affinity enhancing modifications Aze3 and HArg5, and a solubilising C-terminal extension Sar3-(D-Arg)2 (SEQ ID NO: 98); see Examples 3 and 4 herein) was assessed comparatively against the peptide Ac-(06-34-18) Phe2 Aze3 Tyr4 HArg5 Ala(ψCH2NH)6 (referred to in this study as Bicycle 2 and which is disclosed in Table 26b and FIG. 22 of PCT/EP2014/057440). New Zealand White rabbits (2-3 kg) were anaesthetized and both peptides were administered by intravitreal injection (100 μg/eye) according to the protocol described in Table 9.
After an appropriate time, rabbits were euthanized and vitreous humour, aqueous humour, retina and plasma samples were taken. Samples were analysed by LC-MS to determine the concentration of the peptide. The results of this study are shown in FIG. 5 where it can be observed that both peptides were slowly cleared from the vitreous humour, with elimination half-lives of 20-30 h.

CC[C@H](C)[C@@H]1NC(=O)[C@H](CC(C)C)NC(=O)[C@H]([C@@H](C)O)NC(=O)[C@@H]2CSCc3cc(cc(c3)CSC[C@@H](C(=O)N[C@@H](C)C(N)=O)NC(=O)[C@H]([C@@H](C)O)NC(=O)[C@H]([C@@H](C)CC)NC(=O)[C@H](CC(N)=O)NC1=O)CSC[C@H](NC(=O)[C@H](C)N)C(=O)N[C@@H](CCCNC(=N)N)C(=O)N[C@@H](CC(N)=O)C(=O)N[C@@H](Cc1ccc(O)cc1)C(=O)N[C@@H](Cc1c[nH]c3ccccc13)C(=O)N[C@@H](CC(N)=O)C(=O)N1CCC[C@H]1C(=O)N2 [06-255] (H-ACRNYWNPCTLINITCA-NH2; linker 2-9-16 via TBMB; N-terminus and C-terminus assumed)
Ki [1]: 18.9 nM
aqueous solubility [2]: poor solubility profile
window of detection of parent peptide [3]: up to 10 days
Ki ([4]; Table 1, synthetic peptides): 342 nM
Ki ([4]; Table 5): 342 nM
Ki ([5]; Table 1, synthetic peptides, read-out: Human (Ki)): 3.4 nM

CC(C)C[C@@H]1NC(=O)[C@@H]2CCCN2C(=O)[C@H](C)NC(=O)[C@H](CC(=O)O)NC(=O)[C@H](Cc2c[nH]c3ccccc23)NC(=O)[C@@H]2CCCN2C(=O)[C@@H]2CSCc3cc(cc(c3)CSC[C@@H](C(=O)N[C@@H](C)C(N)=O)NC1=O)CSC[C@H](NC(=O)[C@H](C)N)C(=O)N[C@@H](CC(N)=O)C(=O)N[C@@H]([C@@H](C)O)C(=O)N[C@@H](Cc1c[nH]c3ccccc13)C(=O)N[C@@H](CC(N)=O)C(=O)N1CCC[C@H]1C(=O)N[C@@H](Cc1c[nH]c3ccccc13)C(=O)N2 [06-259-02] (H-ACNTWNPWCPWDAPLCA-NH2; linker 2-9-16 via TBMB; N-terminus and C-terminus assumed)
clearance ([6]; Sprague-Dawley, plasma, text b258, rat): 7 mL/min/kg
aqueous solubility [2]: poor solubility profile
comparative stability in human plasma [7]: significantly more stable
comparative stability in rat plasma [8]: significantly more stable
window of detection of parent peptide [3]: up to 10 days
Ki ([4]; Table 5): 1450 nM
S:B (Signal:Background) [9]: 43.49

CC[C@H](C)[C@@H]1NC(=O)[C@H](CC(=O)O)NC(=O)[C@@H]2CCCN2C(=O)[C@H](Cc2ccc(O)cc2)NC(=O)[C@H](Cc2ccc(O)cc2)NC(=O)[C@H](C(C)C)NC(=O)[C@@H]2CSCc3cc(cc(c3)CSC[C@@H](C(=O)N[C@@H](C)C(=O)N(C)CC(=O)N(C)CC(=O)N(C)CC(=O)N[C@H](CCCNC(=N)N)C(=O)N[C@H](CCCNC(=N)N)C(N)=O)NC1=O)CSC[C@H](NC(C)=O)C(=O)N[C@@H](CO)C(=O)N[C@@H](Cc1ccccc1)C(=O)N1CC[C@H]1C(=O)N[C@@H](Cc1ccc(O)cc1)C(=O)N[C@@H](CCCCNC(=N)N)C(=O)N2 [Ac-(06-550)-Sar3-(DArg2) Aze3HArg5] (Ac-CSF[Aze]Y[hArg]CVYYPDICA[Sar][Sar][Sar][dR][dR]-NH2; linker 1-7-14 via TBMB; C-terminus assumed)
clearance ([6]; in vivo, Table 8, Sprague Dawley rat): 17 mL/min/kg
Vd ([6]; in vivo, Table 8, Sprague Dawley rat, read-out: Vss): 0.4 L/kg
half-life ([6]; in vivo, Table 8, Sprague Dawley rat, read-out: t1/2 elimination): 136 min
comparative stability in human plasma [7]: high stability
comparative stability in human plasma ([7]; listed as 06-550 derivative): Little degradation is observed
comparative stability in rat plasma [8]: high stability
comparative stability in rat plasma ([8]; listed as 06-550 derivative): Little degradation is observed
Ki [5]: 0.4 nM
half-life [10]: 1200 to 1800 min

Source: patent US10894808B2, “Polypeptide ligands specific for plasma kallikrein” (BicycleRD Limited, priority 2013, dated 2021)
